Biological target: ATP-binding cassette sub-family C member 2 (Rattus norvegicus, UniProt Q63120)
Experiment: TP_TRANSPORTER: uptake in membrane vesicles from Mrp2-expressing Sf9 cells
Assay type: functional, cell membranes, Membrane vesicle

ATP-binding cassette sub-family C member 2, sequence (Q63120 whole entry): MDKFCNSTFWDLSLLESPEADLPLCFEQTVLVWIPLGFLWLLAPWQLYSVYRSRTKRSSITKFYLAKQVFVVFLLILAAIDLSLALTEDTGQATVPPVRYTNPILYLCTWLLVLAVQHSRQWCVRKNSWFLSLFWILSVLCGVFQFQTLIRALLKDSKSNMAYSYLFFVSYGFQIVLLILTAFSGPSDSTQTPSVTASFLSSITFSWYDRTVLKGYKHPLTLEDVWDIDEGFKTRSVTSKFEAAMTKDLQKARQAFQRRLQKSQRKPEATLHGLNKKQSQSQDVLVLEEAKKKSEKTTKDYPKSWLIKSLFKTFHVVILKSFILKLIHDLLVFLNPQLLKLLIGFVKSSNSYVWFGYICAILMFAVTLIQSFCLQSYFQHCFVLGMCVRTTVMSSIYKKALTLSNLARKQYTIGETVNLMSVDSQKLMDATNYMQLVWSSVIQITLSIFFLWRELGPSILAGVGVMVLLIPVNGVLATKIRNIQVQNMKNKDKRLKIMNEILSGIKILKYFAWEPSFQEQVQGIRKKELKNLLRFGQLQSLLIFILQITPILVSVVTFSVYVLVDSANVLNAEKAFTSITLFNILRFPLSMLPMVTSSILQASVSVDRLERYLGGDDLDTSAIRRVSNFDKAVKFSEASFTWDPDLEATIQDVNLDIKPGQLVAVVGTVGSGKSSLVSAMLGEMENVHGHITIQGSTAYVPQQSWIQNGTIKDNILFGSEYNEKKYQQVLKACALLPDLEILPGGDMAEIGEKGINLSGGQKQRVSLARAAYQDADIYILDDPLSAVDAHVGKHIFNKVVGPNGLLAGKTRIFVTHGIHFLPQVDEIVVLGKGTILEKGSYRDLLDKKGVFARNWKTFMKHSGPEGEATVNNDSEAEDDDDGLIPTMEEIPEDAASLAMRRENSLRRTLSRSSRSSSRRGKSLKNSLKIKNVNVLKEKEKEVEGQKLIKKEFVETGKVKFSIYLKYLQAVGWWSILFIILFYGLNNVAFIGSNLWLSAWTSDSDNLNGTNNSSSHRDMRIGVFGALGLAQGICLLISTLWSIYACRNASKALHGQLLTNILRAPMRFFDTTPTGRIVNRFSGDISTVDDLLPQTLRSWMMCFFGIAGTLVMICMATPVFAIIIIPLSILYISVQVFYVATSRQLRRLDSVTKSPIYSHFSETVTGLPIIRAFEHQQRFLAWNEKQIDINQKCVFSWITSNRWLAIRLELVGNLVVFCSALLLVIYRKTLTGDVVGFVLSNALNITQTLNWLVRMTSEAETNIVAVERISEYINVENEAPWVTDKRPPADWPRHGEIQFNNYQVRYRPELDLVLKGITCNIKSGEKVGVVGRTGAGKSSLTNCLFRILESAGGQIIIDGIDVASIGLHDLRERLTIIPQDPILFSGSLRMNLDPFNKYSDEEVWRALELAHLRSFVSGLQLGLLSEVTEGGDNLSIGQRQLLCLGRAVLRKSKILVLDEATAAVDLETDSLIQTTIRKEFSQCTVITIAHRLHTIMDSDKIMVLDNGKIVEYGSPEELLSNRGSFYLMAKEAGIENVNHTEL

| SMILES | Activity |
| --- | --- |
| CCCCC/C=C\C\C=C/C=C/C=C/[C@@H](SC[C@@H](NC(=O)CC[C@H](N)C(=O)O)C(=O)NCC(=O)O)[C@@H](O)CCCC(=O)O [LEUKOTRIEN C4] | is not a substrate [-] |
| N[C@@H](CCC(=O)N[C@H](CSc1ccc([N+](=O)[O-])cc1[N+](=O)[O-])C(=O)NCC(=O)O)C(=O)O | is not a substrate [-] |
| C[C@]12CC[C@@H]3c4ccc(O)cc4CC[C@H]3[C@@H]1CC[C@@H]2O[C@@H]1O[C@H](C(=O)O)[C@@H](O)[C@H](O)[C@H]1O [ESTRADIOL 17B GLUCURONIDE] | is not a substrate [-] |
| CC[C@H](C)[C@H](NC(=O)[C@H](CC(=O)O)NC(=O)[C@H](CC(C)C)NC(=O)[C@H](Cc1cnc[nH]1)NC(=O)[C@@H]1CSSC[C@H](N)C(=O)N[C@@H](CO)C(=O)N[C@H]2CSSC[C@H](NC(=O)[C@H](CCC(=O)O)NC(=O)[C@H](CCCCN)NC(=O)[C@H](CC(=O)O)NC(=O)[C@H](CCSC)NC(=O)[C@H](CC(C)C)NC(=O)[C@H](CO)NC(=O)[C@H](CO)NC2=O)C(=O)N[C@@H](C(C)C)C(=O)N[C@@H](Cc2ccc(O)cc2)C(=O)N[C@@H](Cc2ccccc2)C(=O)N1)C(=O)N[C@H](C(=O)N[C@@H](Cc1c[nH]c2ccccc12)C(=O)O)[C@@H](C)CC [ENDOTHELIN] | substrate [+] |

Source: ChEMBL document CHEMBL2074010, “Transport function and hepatocellular localization of mrp6 in rat liver” (Mol Pharmacol, 2000)
